Data: patent US9499550B2 (BRISTOL-MYERS SQUIBB COMPANY, priority 2012, dated 2016)

Assays:
[1] = tested on: HCV genotype 1b (Con1) replicon in HUH-7 cells; experiment: HCV replicon luciferase reporter assay, genotype 1b; type: cell-based; conditions: Hepatitis C virus, Huh-7, 72 h, HCV genotype 1b replicon luciferase, 3 days incubation, read-out: LE_1b (EC50, range)
Outline: (§1)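 Replicon inhibition for both genotypes was measured as Renilla luciferase signal (EnduRen, 7.5 μM final, 2 h) after 3-day, 37° C exposure of replicon-bearing HUH-7 cells in 4% FCS DMEM, 0.5% DMSO. The 1b construct carries S1179I; the 1a H77 construct carries P1496L and S2204I. Twenty-point, 3-fold dilutions were fitted four-parametrically for EC50, and CC50 was taken from multiplexed Cell Titer-Blue.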

[2] = tested on: HCV genotype 1a (H77 strain) replicon in HUH-7 cells; experiment: HCV replicon luciferase reporter assay, genotype 1a; type: cell-based; conditions: Hepatitis C virus, Huh-7, 72 h, HCV genotype 1a replicon luciferase, 3 days incubation, read-out: LE_1a (EC50, range)
Outline: as §1

SMILES | EC50 [1] [nM] | EC50 [2] [nM]
CCOc1ccc2c(O[C@@H]3C[C@H]4C(=O)N[C@]5(C(=O)NS(=O)(=O)C6(C)CC6)C[C@H]5/C=C\CC[C@@H](C)C[C@@H](C)[C@H](NC(=O)OC(C)(C)C)C(=O)N4C3)nccc2c1 [Compound 5134, tert-butyl ((2R,6S,7R,9R,13aS,14aR,16aS,Z)-2-((6-ethoxyisoquinolin-1-yl)oxy)-7,9-dimethyl-14a-(((1-methylcyclopropyl)sulfonyl)carbamoyl)-5,16-dioxo-1,2,3,5,6,7,8,9,10,11,13a,14,14a,15,16,16a-hexadecahydrocyclopropa[e]pyrrolo[1,2-a][1,4]diazacyclopentadecin-6-yl)carbamate] | < 5.46 | < 5.46
CCOc1ccc2c(O[C@@H]3C[C@H]4C(=O)N[C@]5(C(=O)NS(=O)(=O)C6(C)CC6)C[C@H]5/C=C\CC[C@H](C)C[C@@H](C)[C@H](NC(=O)OCC5(C)CC5)C(=O)N4C3)nccc2c1 [Compound 5139, (1-methylcyclopropyl)methyl ((2R,6S,7R,9S,13aS,14aR,16aS,Z)-2-((6-ethoxyisoquinolin-1-yl)oxy)-7,9-dimethyl-14a-(((1-methylcyclopropyl)sulfonyl)carbamoyl)-5,16-dioxo-1,2,3,5,6,7,8,9,10,11,13a,14,14a,15,16,16a-hexadecahydrocyclopropa[e]pyrrolo[1,2-a][1,4]diazacyclopentadecin-6-yl)carbamate] | < 5.46 | 4.82 to 103
CCOc1ccc2c(O[C@@H]3C[C@H]4C(=O)N[C@]5(C(=O)NS(=O)(=O)C6(C)CC6)C[C@H]5/C=C\CC[C@@H](C)C[C@@H](C)[C@H](NC(=O)OCC5(C)CC5)C(=O)N4C3)nccc2c1 [Compound 5140, (1-methylcyclopropyl)methyl ((2R,6S,7R,9R,13aS,14aR,16aS,Z)-2-((6-ethoxyisoquinolin-1-yl)oxy)-7,9-dimethyl-14a-(((1-methylcyclopropyl)sulfonyl)carbamoyl)-5,16-dioxo-1,2,3,5,6,7,8,9,10,11,13a,14,14a,15,16,16a-hexadecahydrocyclopropa[e]pyrrolo[1,2-a][1,4]diazacyclopentadecin-6-yl)carbamate] | < 5.46 | < 5.46
CCOc1ccc2c(O[C@@H]3C[C@H]4C(=O)N[C@]5(C(=O)NS(=O)(=O)C6(C)CC6)C[C@H]5/C=C\CC[C@H](C)C[C@@H](C)[C@H](NC(=O)O[C@H](C)C(F)(F)F)C(=O)N4C3)nccc2c1 [Compound 5141, (R)-1,1,1-trifluoropropan-2-yl ((2R,6S,7R,9S,13aS,14aR,16aS,Z)-2-((6-ethoxyisoquinolin-1-yl)oxy)-7,9-dimethyl-14a-(((1-methylcyclopropyl)sulfonyl)carbamoyl)-5,16-dioxo-1,2,3,5,6,7,8,9,10,11,13a,14,14a,15,16,16a-hexadecahydrocyclopropa[e]pyrrolo[1,2-a][1,4]diazacyclopentadecin-6-yl)carbamate] | < 5.46 | 4.82 to 103
CCOc1ccc2c(O[C@@H]3C[C@H]4C(=O)N[C@]5(C(=O)NS(=O)(=O)C6(C)CC6)C[C@H]5/C=C\CC[C@@H](C)C[C@@H](C)[C@H](NC(=O)O[C@H](C)C(F)(F)F)C(=O)N4C3)nccc2c1 [Compound 5142, (R)-1,1,1-trifluoropropan-2-yl ((2R,6S,7R,9R,13aS,14aR,16aS,Z)-2-((6-ethoxyisoquinolin-1-yl)oxy)-7,9-dimethyl-14a-(((1-methylcyclopropyl)sulfonyl)carbamoyl)-5,16-dioxo-1,2,3,5,6,7,8,9,10,11,13a,14,14a,15,16,16a-hexadecahydrocyclopropa[e]pyrrolo[1,2-a][1,4]diazacyclopentadecin-6-yl)carbamate] | < 5.46 | < 5.46
CCOc1ccc2c(O[C@@H]3C[C@H]4C(=O)N[C@]5(C(=O)NS(=O)(=O)C6(C)CC6)C[C@H]5/C=C\CC[C@H](C)C[C@@H](C)[C@H](NC(=O)NC(C)(C)C(F)(F)F)C(=O)N4C3)nccc2c1 [Compound 5143, (2R,6S,7R,9S,13aS,14aR,16aS,Z)-2-((6-ethoxyisoquinolin-1-yl)oxy)-7,9-dimethyl-N-((1-methylcyclopropyl)sulfonyl)-5,16-dioxo-6-(3-(1,1,1-trifluoro-2-methylpropan-2-yl)ureido)-1,2,3,5,6,7,8,9,10,11,13a,14,14a,15,16,16a-hexadecahydrocyclopropa[e]pyrrolo[1,2-a][1,4]diazacyclopentadecine-14a-carboxamide] | < 5.46 | 4.82 to 103
CCOc1ccc2c(O[C@@H]3C[C@H]4C(=O)N[C@]5(C(=O)NS(=O)(=O)C6(C)CC6)C[C@H]5/C=C\CC[C@@H](C)C[C@@H](C)[C@H](NC(=O)NC(C)(C)C(F)(F)F)C(=O)N4C3)nccc2c1 [Compound 5144, (2R,6S,7R,9R,13aS,14aR,16aS,Z)-2-((6-ethoxyisoquinolin-1-yl)oxy)-7,9-dimethyl-N-((1-methylcyclopropyl)sulfonyl)-5,16-dioxo-6-(3-(1,1,1-trifluoro-2-methylpropan-2-yl)ureido)-1,2,3,5,6,7,8,9,10,11,13a,14,14a,15,16,16a-hexadecahydrocyclopropa[e]pyrrolo[1,2-a][1,4]diazacyclopentadecine-14a-carboxamide] | < 5.46 | 4.82 to 103
CC(C)Oc1ccc2c(O[C@@H]3C[C@H]4C(=O)N[C@]5(C(=O)NS(=O)(=O)C6CC6)C[C@H]5/C=C\CC[C@H](C)C[C@@H](C)[C@H](NC(=O)OC(C)(C)C)C(=O)N4C3)nccc2c1 [Compound 5145, tert-butyl ((2R,6S,7R,9S,13aS,14aR,16aS,Z)-14a-((cyclopropylsulfonyl)carbamoyl)-2-((6-isopropoxyisoquinolin-1-yl)oxy)-7,9-dimethyl-5,16-dioxo-1,2,3,5,6,7,8,9,10,11,13a,14,14a,15,16,16a-hexadecahydrocyclopropa[e]pyrrolo[1,2-a][1,4]diazacyclopentadecin-6-yl)carbamate] | < 5.46 | 4.82 to 103
CC(C)Oc1ccc2c(O[C@@H]3C[C@H]4C(=O)N[C@]5(C(=O)NS(=O)(=O)C6CC6)C[C@H]5/C=C\CC[C@@H](C)C[C@@H](C)[C@H](NC(=O)OC(C)(C)C)C(=O)N4C3)nccc2c1 [Compound 5146, tert-butyl ((2R,6S,7R,9R,13aS,14aR,16aS,Z)-14a-((cyclopropylsulfonyl)carbamoyl)-2-((6-isopropoxyisoquinolin-1-yl)oxy)-7,9-dimethyl-5,16-dioxo-1,2,3,5,6,7,8,9,10,11,13a,14,14a,15,16,16a-hexadecahydrocyclopropa[e]pyrrolo[1,2-a][1,4]diazacyclopentadecin-6-yl)carbamate] | < 5.46 | < 5.46
CC(C)Oc1ccc2c(O[C@@H]3C[C@H]4C(=O)N[C@]5(C(=O)NS(=O)(=O)C6CC6)C[C@H]5/C=C\CC[C@H](C)C[C@@H](C)[C@H](NC(=O)OC(C)(C)C(F)(F)F)C(=O)N4C3)nccc2c1 [Compound 5147, 1,1,1-trifluoro-2-methylpropan-2-yl((2R,6S,7R,9S,13aS,14aR,16aS,Z)-14a-((cyclopropylsulfonyl)carbamoyl)-2-((6-isopropoxyisoquinolin-1-yl)oxy)-7,9-dimethyl-5,16-dioxo-1,2,3,5,6,7,8,9,10,11,13a,14,14a,15,16,16a-hexadecahydrocyclopropa[e]pyrrolo[1,2-a][1,4]diazacyclopentadecin-6-yl)carbamate] | 4.82 to 103 | 4.82 to 103
CC(C)Oc1ccc2c(O[C@@H]3C[C@H]4C(=O)N[C@]5(C(=O)NS(=O)(=O)C6CC6)C[C@H]5/C=C\CC[C@@H](C)C[C@@H](C)[C@H](NC(=O)OC(C)(C)C(F)(F)F)C(=O)N4C3)nccc2c1 [Compound 5148, 1,1,1-trifluoro-2-methylpropan-2-yl((2R,6S,7R,9R,13aS,14aR,16aS,Z)-14a-((cyclopropylsulfonyl)carbamoyl)-2-((6-isopropoxyisoquinolin-1-yl)oxy)-7,9-dimethyl-5,16-dioxo-1,2,3,5,6,7,8,9,10,11,13a,14,14a,15,16,16a-hexadecahydrocyclopropa[e]pyrrolo[1,2-a][1,4]diazacyclopentadecin-6-yl)carbamate] | < 5.46 | < 5.46
CC(C)Oc1ccc2c(O[C@@H]3C[C@H]4C(=O)N[C@]5(C(=O)NS(=O)(=O)C6CC6)C[C@H]5/C=C\CC[C@H](C)C[C@@H](C)[C@H](NC(=O)O[C@H](C)C(F)(F)F)C(=O)N4C3)nccc2c1 [Compound 5149, (R)-1,1,1-trifluoropropan-2-yl((2R,6S,7R,9S,13aS,14aR,16aS,Z)-14a-((cyclopropylsulfonyl)carbamoyl)-2-((6-isopropoxyisoquinolin-1-yl)oxy)-7,9-dimethyl-5,16-dioxo-1,2,3,5,6,7,8,9,10,11,13a,14,14a,15,16,16a-hexadecahydrocyclopropa[e]pyrrolo[1,2-a][1,4]diazacyclopentadecin-6-yl)carbamate] | < 5.46 | 4.82 to 103
CC(C)Oc1ccc2c(O[C@@H]3C[C@H]4C(=O)N[C@]5(C(=O)NS(=O)(=O)C6CC6)C[C@H]5/C=C\CC[C@@H](C)C[C@@H](C)[C@H](NC(=O)O[C@H](C)C(F)(F)F)C(=O)N4C3)nccc2c1 [Compound 5150, (R)-1,1,1-trifluoropropan-2-yl((2R,6S,7R,9R,13aS,14aR,16aS,Z)-14a-((cyclopropylsulfonyl)carbamoyl)-2-((6-isopropoxyisoquinolin-1-yl)oxy)-7,9-dimethyl-5,16-dioxo-1,2,3,5,6,7,8,9,10,11,13a,14,14a,15,16,16a-hexadecahydrocyclopropa[e]pyrrolo[1,2-a][1,4]diazacyclopentadecin-6-yl)carbamate] | < 5.46 | < 5.46
